# Test results as given in article PMC11942360, “Intratracheal Delivery of a Phospholamban Decoy Peptide Attenuates Cardiac Damage Following Myocardial Infarction” (International Journal of Molecular Sciences, 2025).
# Columns and labels:
# [1] = tested on: C57/Bl6 mice, myocardial infarction; assay: Myocardial infarction model: hemodynamic analysis (PV loops); type: in vivo; details: 200 nmoles IT 3 h prior to MI, 24 h post-MI, n = 5~8 per group
# Description: Figure 3 Delivery of dNP2-SE via IT injection preserves cardiac contractility upon MI. Hemodynamic analyses were performed 24 h post-MI to measure cardiac contractility. (A) Representative PV loops are shown. (B) End-systolic pressure–volume relationship (ESPVR), dp/dt max (mmHg), and dp/dt min (mmHg) are shown. […] Bar represents the mean ± SEM.
# (§1) The left side of the chest was shaved, and an intubation tube was inserted into the trachea. An incision was made in the 4th intercostal space, and the muscles were separated with scissors. The pericardium was gently removed. MI was induced by ligation of the left anterior descending (LAD) artery using a 7–0 black silk suture. The lower region of the artery turned pale immediately after ligation. The chest was sutured with 4–0 black silk. The same surgical procedure, without LAD ligation, was performed for the sham operation.
# An incision was made in the abdominal wall to expose the abdominal cavity. The diaphragm was carefully separated from the ribs to avoid bleeding during the incision procedures. The xiphoid process was lifted, and the diaphragm was pulled down and fixed to secure the site. The pericardium was then removed. A small puncture was made in the left ventricle using an insulin syringe, and a probe was inserted through the puncture (AD instruments, Dunedin, New Zealand). Data analysis was performed using LabChart 8 (AD instruments, New Zealand).
# [2] = tested on: C57/Bl6 mice, myocardial infarction; assay: Myocardial infarction (LAD ligation) model: histology and heart morphology; type: in vivo; details: 200 nmoles IT 3 h prior to MI, vs PBS-injected
# Description: (§2) Figure 2 Delivery of dNP2-SE via IT injection exerts cardio-protective effects upon MI. (A) Experimental scheme. A total of 200 nmol dNP2-SE or PBS was delivered via IT injection to adult (9-week-old) C57/Bl6 mice. MI was induced by LAD ligation 3 h post-injection. Hearts were harvested and analyzed 24 h post-MI. (B) Hearts were sectioned and stained with hematoxylin and eosin (H&E) or Picro Sirius Red. Representative images are shown. The LV chamber area was traced (shown in blue lines) and quantitated. The thickness of the LV free wall was also measured (shown in straight black lines). (C,D) LV chamber area and LV free wall thickness are presented as a graph. n = 6~7 per group; one-way ANOVA; *** p < 0.001. Bar represents the mean ±SEM. […] Bar represents the mean ±SEM. (F) TUNEL staining of the heart sections was performed using the DeadEnd Fluorometric TUNEL System. Apoptotic DNA fragmentation was labeled with fluorescein-12-dUTP (green). Nuclei were stained with Hoechst 33342 (blue). Representative images are shown. […] Bar represents the mean ± SEM.
# as §1
# Harvested heart tissues were fixed in 4% PFA for 24 h at 4 °C and then washed with tap water. After discarding the tap water, the tissues were sequentially incubated in 70%, 80%, 95%, and 100% ethanol for 1 h each to dehydrate. Following the ethanol incubations, the tissues were incubated in xylene for 1 h and 20 min and then embedded in paraffin at 60 °C for 4 h. Paraffin-embedded tissues were sliced into 8 µm sections. After rehydration, the sections were used for histology as follows:
# H&E staining: The sections were incubated in hematoxylin (26041-06, Electron Microscopy Science, Hatfield, PA, USA) for 30 s to stain the nuclei, followed by a 10 min wash in running tap water to remove excess stain. Subsequently, the sections were incubated in eosin (EOYA-05-OT-1L, Biognost, Zagreb, Croatia) for 2 min to stain the cytoplasm.
# Picro Sirius staining: The sections were incubated for 60 min in Picro Sirius Red solution (ab150681, Abcam, Waltham, MA, USA), rinsed twice with 0.5% acetic acid, and then rinsed with absolute alcohol. H&E and Picro Sirius-stained slides were observed using a slide scanner (Aperio CS2, Leica, Germany).
# [3] = molecular target: T1, PP1cα-PPP1R3A-PLN complex (Mus musculus, UniProt P62137); assay: Immunoprecipitation of heart lysates with anti-PP1cα antibodies; details: heart lysates of MI mice given 200 nmoles IT, IP with anti-PP1cα
# T1 construct: from tissue; host or cells: mouse heart (C57BL/6, after MI, PBS- or dNP2-SE-injected)
# Text: (§3) Figure 5 Inhibitory mechanism of dNP2-SE on the PP1cα-PPP1R3A-PLN complex. (A) Protein lysates shown in Figure 4 were subjected to immunoprecipitation with anti-PP1cα antibodies and blotted with antibodies against PLN, PPP1R3A, and PP1cα (upper three rows). Inputs were also blotted with antibodies against PLN, PPP1R3A, and PP1cα (lower three rows). (B) Biotin-dNP2-SE was delivered to the normal heart via IT injection. Heart lysates were obtained, precipitated with streptavidin, and blotted with PP1cα, PPP1R3A, and PLN. Inputs were also blotted.
# Immunoprecipitation was performed by adding 1 µg of the corresponding antibody to 1 mg of lysate. The mixture was gently inverted on a rotator overnight at 4 °C. After the primary antibody incubation, 30 µL of protein A-conjugated magnetic beads (88845, Thermo Fisher, Waltham, MA, USA) were added and incubated for 1 h to bind with the antibody. To isolate the protein–antibody–bead complex from the lysate, the mixture was centrifuged at 3000 rpm for 3 min at 4 °C and washed 4 times with lysis buffer. As a control for the precipitates, 2% of the initial protein amount used for pulldown was prepared as input. The collected complexes and inputs were used for western blots.
# [4] = tested on: SERCA2a, α-SMA, phospho-PLN (S16), PP1cα, PPP1R3A in heart; assay: Myocardial infarction model: western blotting of heart lysates; type: in vivo, mice; details: 200 nmoles IT 3 h prior to MI, 24 h post-MI, western blot, n = 3 per group
# Text: Figure 4 Delivery of dNP2-SE via IT injection prevents molecular abnormalities upon MI. (A) Protein lysates obtained from the hearts shown in Figure 2 and Figure 3 were subjected to western blotting. Antibodies against SERCA2a, α-SMA, phospho-PLN, PLN, PP1cα, and PPP1R3A were used. β-actin was used as a loading control. (B) The ratio of phosphorylated PLN over PLN is shown. […] Bar represents the mean ± SEM.
# PPP1R3A = molecular target: T2, PPP1R3A (Mus musculus, UniProt Q99MR9); assay: Streptavidin precipitation of biotin-dNP2-SE from heart lysates, blot for PPP1R3A; type: binding, mice; details: biotin-dNP2-SE delivered to the normal heart via IT injection
# T2 construct: from tissue; host or cells: normal mouse heart after IT injection of biotin-dNP2-SE
# T2 sequence (Q99MR9 1-1089): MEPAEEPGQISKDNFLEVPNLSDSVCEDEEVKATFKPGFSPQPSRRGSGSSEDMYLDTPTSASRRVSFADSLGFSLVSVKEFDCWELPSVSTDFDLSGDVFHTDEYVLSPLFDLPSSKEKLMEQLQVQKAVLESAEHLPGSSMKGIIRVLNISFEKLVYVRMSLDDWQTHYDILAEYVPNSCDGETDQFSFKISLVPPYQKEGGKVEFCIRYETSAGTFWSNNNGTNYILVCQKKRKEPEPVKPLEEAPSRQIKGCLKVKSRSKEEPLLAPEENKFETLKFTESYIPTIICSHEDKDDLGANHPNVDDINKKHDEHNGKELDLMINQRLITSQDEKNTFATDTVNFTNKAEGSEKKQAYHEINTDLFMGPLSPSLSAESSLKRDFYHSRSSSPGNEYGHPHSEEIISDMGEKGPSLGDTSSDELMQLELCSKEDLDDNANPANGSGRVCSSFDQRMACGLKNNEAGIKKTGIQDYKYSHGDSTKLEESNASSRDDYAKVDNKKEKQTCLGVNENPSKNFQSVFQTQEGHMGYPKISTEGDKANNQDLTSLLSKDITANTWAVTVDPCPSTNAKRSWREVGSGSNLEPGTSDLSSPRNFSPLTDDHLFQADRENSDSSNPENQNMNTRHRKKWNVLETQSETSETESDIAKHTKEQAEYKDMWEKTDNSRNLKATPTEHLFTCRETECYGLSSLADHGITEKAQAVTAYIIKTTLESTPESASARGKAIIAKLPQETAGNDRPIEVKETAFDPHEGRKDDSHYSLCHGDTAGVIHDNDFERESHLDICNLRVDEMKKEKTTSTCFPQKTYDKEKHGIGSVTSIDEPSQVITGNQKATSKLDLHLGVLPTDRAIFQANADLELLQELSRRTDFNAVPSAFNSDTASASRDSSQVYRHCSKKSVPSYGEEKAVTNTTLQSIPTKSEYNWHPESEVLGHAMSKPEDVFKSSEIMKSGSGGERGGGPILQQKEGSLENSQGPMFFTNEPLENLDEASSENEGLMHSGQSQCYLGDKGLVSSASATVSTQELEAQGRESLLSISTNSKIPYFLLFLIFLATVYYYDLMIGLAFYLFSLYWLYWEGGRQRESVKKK
# Text: as §3
# PP1cα = molecular target: T3, PP1cα (Mus musculus, UniProt P62137); assay: Streptavidin precipitation of biotin-dNP2-SE from heart lysates, blot for PP1cα; type: binding, mice; details: biotin-dNP2-SE delivered to the normal heart via IT injection
# T3 construct: from tissue; host or cells: normal mouse heart after IT injection of biotin-dNP2-SE
# Text: as §3
# [5] = tested on: C57/Bl6 mice, myocardial infarction; assay: Myocardial infarction model: TUNEL staining of heart sections; type: in vivo; details: 200 nmoles IT 3 h prior to MI; 24 h post-MI; LV free wall; n = 3~4 per group
# Description: as §2, with “± SEM. […]” for “± SEM.”
# The TUNEL assay was performed following the manufacturer’s instructions (DeadEnd Fluorometric TUNEL System, Promega, […], USA). […] Apoptotic signals and nuclear signals in the LV region were counted using cellSens TruAI 4.3 software (OLYMPUS, Tokyo, Japan), and the percentage of TUNEL-positive cells was calculated.
# [6] = cited from earlier work
# Text: In this study, we aimed to evaluate the feasibility of delivering a naked peptide fused with a cell-penetrating peptide (CPP) to the heart via the lung-to-heart route without encapsulation in NPs. CPPs, which are the peptide sequences enriched in arginine and lysine residues, facilitate the translocation of hydrophilic macromolecules such as proteins and peptides across cellular membranes. The specific CPP used in this study is a tandem repeat of NP2 (dNP2), a sequence derived from the human novel LZAP-binding protein (NLBP). Compared to TAT, the most widely used CPP originated fro ...
# [7] = 24 h post-MI, n = 6~7 per group
# T1 sequence (P62137 whole entry, one chain of several): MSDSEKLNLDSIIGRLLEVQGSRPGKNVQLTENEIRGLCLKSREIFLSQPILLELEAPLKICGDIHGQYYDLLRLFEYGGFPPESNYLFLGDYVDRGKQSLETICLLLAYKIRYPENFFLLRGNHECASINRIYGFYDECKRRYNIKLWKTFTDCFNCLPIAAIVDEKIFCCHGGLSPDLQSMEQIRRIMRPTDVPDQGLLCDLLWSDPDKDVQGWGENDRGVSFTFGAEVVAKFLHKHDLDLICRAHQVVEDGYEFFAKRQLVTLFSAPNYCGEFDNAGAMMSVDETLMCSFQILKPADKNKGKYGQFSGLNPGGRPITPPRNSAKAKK
# T3 sequence (P62137 whole entry): as the sequence (P62137 whole entry, one chain of several) above
substance,measurement,setting,value
Ac-KIKKVKKKGRKGSKIKKVKKKGRKGRAETIEMPQ-NH2 [dNP2-SE],PV loop pattern under MI,[1],indistinguishable from that of sham-operated hearts
same,Ejection fraction (EF) under MI,[1]; vs PBS-injected,significantly ameliorated
same,End-systolic pressure–volume ratio (ESPVR) under MI,[1]; vs PBS-injected,significantly normalized
same,LV end-diastolic volume (Vmax) under MI,[1]; vs PBS-injected,significantly ameliorated
same,LV end-systolic volume (Vmin) under MI,[1]; vs PBS-injected,significantly ameliorated
same,dP/dt max under MI,[1]; vs PBS-injected,significantly normalized
same,dP/dt min under MI,[1]; vs PBS-injected,significantly normalized
same,Heart weight-to-body weight ratio under MI,[2]; [7],normalized
same,LV chamber area under MI,[2]; [7],remained normal
same,LV free wall thickness under MI,[2]; [7],significantly preserved
same,Collagen deposition (Picro Sirius staining) under MI,[2]; hearts 24 h post-MI,markedly reduced
same,Interactions between PP1cα and PPP1R3A (co-immunoprecipitation),[3],not altered
same,Physical interactions between PP1cα and PLN (co-immunoprecipitation),[3]; vs PBS-injected,completely abolished
same,Phosphorylation of PLN at S16 (p-PLN) in heart under MI,[4]; p-PLN/PLN,fully preserved
same,Expression level of PP1cα in heart,[4],remained unchanged
same,MI-induced increase in PPP1R3A expression in heart,[4],prevented
same,MI-induced increase of α-smooth muscle actin (α-SMA) in heart,[4],attenuated
same,MI-induced reduction of SERCA2a expression in heart,[4],attenuated
same,"Interaction with PPP1R3A (streptavidin precipitation, western blot)",PPP1R3A,only weakly interacts
same,"Binding to PP1cα (streptavidin precipitation, western blot)",PP1cα,strongly binds
same,Increase in apoptotic cell populations (TUNEL-positive cells) under MI,[5],effectively prevented
KIKKVKKKGRKGSKIKKVKKKGRKG [dNP2],Toxicity compared to TAT,[6],significantly lower toxicity than TAT
